In ChEMBL document CHEMBL4837239, “Identification of Thieno[3,2-d]pyrimidine Derivatives as Dual Inhibitors of Focal Adhesion Kinase and FMS-like Tyrosine Kinase 3” (J Med Chem, 2021):
Calls of active or inactive are those of the source. The calls are words filed in the database; no cut-off is given here.

Assays:
[1] = Oral bioavailability in mouse at 10 mg/kg; assay type: ADME, organism-based; settings: in vivo
[2] = Toxicity in mouse xenografted with human MV4-11 cells assessed as change in body weight at 20 to 50 mg/kg, po; assay type: organism-based; settings: in vivo, dose 20-50 mg/kg
HCT-116 [3] = assay: Antiinvasive activity in human HCT-116 cells assessed as suppression of invasion at 1 uM measured after 12 hrs by trans well experiment; assay type: functional
[4] = biological target: Proto-oncogene tyrosine-protein kinase Src (Homo sapiens, UniProt P12931); assay: Inhibition of Src (unknown origin)
HCT-116 [5] = assay: Growth inhibition of anchorage-Independent human HCT-116 cells assessed as decrease in number of colonies at 1 uM incubated for 72 hrs by MTT assay relative to control; assay type: functional, cell-based
Focal adhesion kinase 1 [6] = biological target: T1, Focal adhesion kinase 1 (Homo sapiens, UniProt Q05397); assay: Inhibition of FAK autophosphorylation at Y397 in human HCT-116 cells at 5 uM incubated for 24 hrs by Western blot analysis; assay type: cell-based
T1 sequence (Q05397 2-1052 limits assumed): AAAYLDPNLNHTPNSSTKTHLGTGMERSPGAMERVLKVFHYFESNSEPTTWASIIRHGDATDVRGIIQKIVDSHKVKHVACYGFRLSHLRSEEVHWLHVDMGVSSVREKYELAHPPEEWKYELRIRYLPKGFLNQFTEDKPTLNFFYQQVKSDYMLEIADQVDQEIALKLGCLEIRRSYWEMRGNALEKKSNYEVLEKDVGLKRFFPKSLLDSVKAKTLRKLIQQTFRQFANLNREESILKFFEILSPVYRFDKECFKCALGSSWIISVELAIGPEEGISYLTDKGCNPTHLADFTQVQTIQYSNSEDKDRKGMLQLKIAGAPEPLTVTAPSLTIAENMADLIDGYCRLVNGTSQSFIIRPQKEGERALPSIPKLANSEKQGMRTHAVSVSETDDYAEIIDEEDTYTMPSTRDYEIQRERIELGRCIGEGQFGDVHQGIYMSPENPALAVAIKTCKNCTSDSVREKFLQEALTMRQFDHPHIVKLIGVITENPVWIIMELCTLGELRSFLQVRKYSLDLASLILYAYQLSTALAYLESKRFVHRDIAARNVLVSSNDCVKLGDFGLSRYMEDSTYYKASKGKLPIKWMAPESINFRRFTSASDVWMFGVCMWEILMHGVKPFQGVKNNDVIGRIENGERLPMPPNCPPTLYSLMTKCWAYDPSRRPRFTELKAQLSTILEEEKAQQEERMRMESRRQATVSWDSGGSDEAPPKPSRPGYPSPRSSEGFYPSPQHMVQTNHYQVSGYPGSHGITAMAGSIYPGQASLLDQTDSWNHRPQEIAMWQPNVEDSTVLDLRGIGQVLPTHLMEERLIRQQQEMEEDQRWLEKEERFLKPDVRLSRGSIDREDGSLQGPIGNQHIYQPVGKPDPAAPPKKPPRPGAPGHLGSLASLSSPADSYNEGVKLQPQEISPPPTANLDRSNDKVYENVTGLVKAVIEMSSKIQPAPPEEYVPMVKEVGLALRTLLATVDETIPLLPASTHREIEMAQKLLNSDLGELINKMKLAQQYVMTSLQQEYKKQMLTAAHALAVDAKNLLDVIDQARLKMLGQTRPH

CYP2D6 = CYP2D6 (Homo sapiens, UniProt P10635); assay: Inhibition of CYP2D6 (unknown origin) at 10 uM relative to control; assay type: ADME
Focal adhesion kinase 1 [7] = biological target: T1, Focal adhesion kinase 1; assay: Inhibition of FAK autophosphorylation at Y925 in human HCT-116 cells at 5 uM incubated for 24 hrs by Western blot analysis; assay type: cell-based
[8] = biological target: Tyrosine-protein kinase JAK1 (Homo sapiens, UniProt P23458); assay: Inhibition of JAK1 (unknown origin) at 0.1 uM
Tyrosine-protein kinase JAK1, sequence (P23458 whole entry): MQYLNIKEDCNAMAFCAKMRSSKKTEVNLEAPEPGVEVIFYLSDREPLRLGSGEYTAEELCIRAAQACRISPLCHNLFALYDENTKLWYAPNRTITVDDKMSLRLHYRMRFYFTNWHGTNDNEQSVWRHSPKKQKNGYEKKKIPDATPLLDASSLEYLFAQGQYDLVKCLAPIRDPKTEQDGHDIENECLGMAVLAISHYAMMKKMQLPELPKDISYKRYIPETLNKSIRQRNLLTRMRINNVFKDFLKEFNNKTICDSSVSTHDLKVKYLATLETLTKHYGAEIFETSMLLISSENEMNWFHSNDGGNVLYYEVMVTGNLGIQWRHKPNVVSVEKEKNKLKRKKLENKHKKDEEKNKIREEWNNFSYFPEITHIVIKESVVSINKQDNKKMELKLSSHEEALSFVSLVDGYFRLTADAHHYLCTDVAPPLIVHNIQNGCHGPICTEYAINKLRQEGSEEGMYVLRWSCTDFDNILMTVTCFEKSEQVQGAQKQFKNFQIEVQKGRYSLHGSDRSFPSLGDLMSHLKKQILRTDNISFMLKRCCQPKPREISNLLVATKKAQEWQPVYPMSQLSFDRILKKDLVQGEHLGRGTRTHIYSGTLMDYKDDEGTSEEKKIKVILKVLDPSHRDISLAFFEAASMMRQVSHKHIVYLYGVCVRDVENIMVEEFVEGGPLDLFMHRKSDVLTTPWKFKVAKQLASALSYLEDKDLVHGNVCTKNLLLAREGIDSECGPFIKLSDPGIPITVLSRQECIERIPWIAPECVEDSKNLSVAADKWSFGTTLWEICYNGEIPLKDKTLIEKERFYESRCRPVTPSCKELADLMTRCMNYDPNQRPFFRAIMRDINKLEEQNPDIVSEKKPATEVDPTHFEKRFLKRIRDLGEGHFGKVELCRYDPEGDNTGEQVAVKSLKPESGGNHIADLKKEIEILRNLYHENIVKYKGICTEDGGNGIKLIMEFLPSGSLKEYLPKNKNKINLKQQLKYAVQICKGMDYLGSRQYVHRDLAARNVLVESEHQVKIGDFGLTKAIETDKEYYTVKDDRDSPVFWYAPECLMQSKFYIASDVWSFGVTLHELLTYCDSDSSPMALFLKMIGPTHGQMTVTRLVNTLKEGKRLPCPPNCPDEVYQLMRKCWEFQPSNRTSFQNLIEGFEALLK

CYP3A4 = CYP3A4 (Homo sapiens, UniProt P08684); assay: Inhibition of CYP3A4 (unknown origin) at 10 uM relative to control; assay type: ADME
CYP2C9 = CYP2C9 (Homo sapiens, UniProt P11712); assay: Inhibition of CYP2C9 (unknown origin) at 10 uM relative to control; assay type: ADME
CYP2C9, sequence (P11712 whole entry): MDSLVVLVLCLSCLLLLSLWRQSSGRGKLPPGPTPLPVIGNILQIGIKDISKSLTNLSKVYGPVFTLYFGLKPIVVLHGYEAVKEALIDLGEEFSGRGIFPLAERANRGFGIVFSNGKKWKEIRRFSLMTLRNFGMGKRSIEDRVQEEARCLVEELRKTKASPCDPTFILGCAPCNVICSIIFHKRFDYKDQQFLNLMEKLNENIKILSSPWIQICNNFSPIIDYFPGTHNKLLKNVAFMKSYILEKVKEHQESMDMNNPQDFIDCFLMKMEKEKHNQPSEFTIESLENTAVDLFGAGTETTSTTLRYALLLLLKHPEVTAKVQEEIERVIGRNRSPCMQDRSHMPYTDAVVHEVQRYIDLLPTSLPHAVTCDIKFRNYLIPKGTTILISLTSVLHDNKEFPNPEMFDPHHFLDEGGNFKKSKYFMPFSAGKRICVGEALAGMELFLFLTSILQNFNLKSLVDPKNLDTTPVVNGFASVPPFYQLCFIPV

[9] = biological target: Tyrosine-protein kinase JAK3 (Homo sapiens, UniProt P52333); assay: Inhibition of JAK3 (unknown origin)
Tyrosine-protein kinase JAK3, sequence (P52333 whole entry): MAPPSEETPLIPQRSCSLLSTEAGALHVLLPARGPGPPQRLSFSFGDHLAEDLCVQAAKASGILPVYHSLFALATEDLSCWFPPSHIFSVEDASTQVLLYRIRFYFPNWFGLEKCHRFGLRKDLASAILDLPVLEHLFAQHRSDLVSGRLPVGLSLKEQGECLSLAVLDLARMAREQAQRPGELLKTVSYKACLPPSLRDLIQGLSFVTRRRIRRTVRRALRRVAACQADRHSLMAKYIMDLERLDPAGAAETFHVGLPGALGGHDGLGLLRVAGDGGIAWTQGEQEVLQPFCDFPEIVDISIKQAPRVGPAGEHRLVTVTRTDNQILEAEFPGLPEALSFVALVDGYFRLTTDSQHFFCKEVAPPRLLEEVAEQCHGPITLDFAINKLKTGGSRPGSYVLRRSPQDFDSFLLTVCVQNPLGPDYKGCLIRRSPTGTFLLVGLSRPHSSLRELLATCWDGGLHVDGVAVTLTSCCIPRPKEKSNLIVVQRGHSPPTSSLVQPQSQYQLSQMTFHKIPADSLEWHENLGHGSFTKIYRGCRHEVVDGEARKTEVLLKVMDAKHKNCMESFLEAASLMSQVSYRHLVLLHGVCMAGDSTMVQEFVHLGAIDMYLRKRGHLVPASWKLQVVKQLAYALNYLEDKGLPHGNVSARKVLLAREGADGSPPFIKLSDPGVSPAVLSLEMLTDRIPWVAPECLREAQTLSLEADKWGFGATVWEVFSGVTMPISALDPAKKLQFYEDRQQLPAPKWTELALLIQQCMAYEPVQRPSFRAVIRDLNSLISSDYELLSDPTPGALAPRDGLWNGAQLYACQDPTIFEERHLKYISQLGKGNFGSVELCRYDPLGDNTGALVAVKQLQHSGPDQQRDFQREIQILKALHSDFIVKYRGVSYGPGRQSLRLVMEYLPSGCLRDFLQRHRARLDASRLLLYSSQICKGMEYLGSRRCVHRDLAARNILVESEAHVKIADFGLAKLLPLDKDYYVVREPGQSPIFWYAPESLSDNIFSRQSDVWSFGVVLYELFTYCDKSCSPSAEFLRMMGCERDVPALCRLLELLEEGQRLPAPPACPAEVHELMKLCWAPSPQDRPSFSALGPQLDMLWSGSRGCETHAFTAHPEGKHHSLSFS

[10] = Antiproliferative activity against human A375P cells assessed as growth inhibition measured after 72 hrs by CellTiter-Glo assay; assay type: functional; settings: Homo sapiens, A375P
Focal adhesion kinase 1 [11] = biological target: T1, Focal adhesion kinase 1; assay: Inhibition of FAK autophosphorylation at Y576 in human HCT-116 cells at 5 uM incubated for 24 hrs by Western blot analysis; assay type: cell-based
[12] = biological target: Proto-oncogene tyrosine-protein kinase ROS (Homo sapiens, UniProt P08922); assay: Inhibition of ROS (unknown origin) at 0.1 uM
Focal adhesion kinase 1 [13] = biological target: T1, Focal adhesion kinase 1; assay: Inhibition of FAK autophosphorylation at Y576 in human MDA-MB-231 cells at 5 uM incubated for 24 hrs by Western blot analysis; assay type: cell-based
BaF3 = assay: Antiproliferative activity against mouse Ba/F3 cells harbouring FLT3 ITD mutant assessed as growth inhibition measured after 72 hrs by CellTiter-Glo assay; assay type: functional; settings: Mus musculus, BaF3
[14] = biological target: Epithelial discoidin domain-containing receptor 1 (Homo sapiens, UniProt Q08345); assay: Inhibition of DDR1 (unknown origin) at 0.1 uM
Epithelial discoidin domain-containing receptor 1, sequence (Q08345 whole entry, the tested form may be a part): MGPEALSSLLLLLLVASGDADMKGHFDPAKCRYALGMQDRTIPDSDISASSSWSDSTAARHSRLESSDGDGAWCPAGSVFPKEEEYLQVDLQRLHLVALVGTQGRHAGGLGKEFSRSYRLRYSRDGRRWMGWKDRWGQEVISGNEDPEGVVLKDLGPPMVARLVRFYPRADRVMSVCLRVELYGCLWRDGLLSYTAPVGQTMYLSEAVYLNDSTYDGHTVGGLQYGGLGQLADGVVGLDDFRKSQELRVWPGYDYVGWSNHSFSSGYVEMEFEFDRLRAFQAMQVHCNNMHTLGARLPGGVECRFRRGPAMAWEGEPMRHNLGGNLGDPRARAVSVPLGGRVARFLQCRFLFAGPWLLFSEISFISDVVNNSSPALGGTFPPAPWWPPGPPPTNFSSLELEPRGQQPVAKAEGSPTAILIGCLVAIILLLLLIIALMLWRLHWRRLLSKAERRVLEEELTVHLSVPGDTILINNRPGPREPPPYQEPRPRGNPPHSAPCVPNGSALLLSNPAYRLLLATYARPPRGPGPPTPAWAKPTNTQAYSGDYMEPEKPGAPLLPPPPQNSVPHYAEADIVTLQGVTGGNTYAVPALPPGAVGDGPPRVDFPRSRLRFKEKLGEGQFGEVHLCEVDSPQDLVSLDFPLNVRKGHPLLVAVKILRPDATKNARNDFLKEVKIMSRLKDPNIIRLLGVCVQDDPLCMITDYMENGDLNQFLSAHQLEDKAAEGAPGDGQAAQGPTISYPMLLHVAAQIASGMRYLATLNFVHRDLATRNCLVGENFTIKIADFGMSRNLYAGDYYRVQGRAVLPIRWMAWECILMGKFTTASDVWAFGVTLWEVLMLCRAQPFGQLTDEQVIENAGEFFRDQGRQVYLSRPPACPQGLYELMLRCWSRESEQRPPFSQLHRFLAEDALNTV

[15] = biological target: Cyclin-dependent kinase 4 (Homo sapiens, UniProt P11802); assay: Inhibition of CDK4 (unknown origin) at 0.1 uM
Cyclin-dependent kinase 4, sequence (P11802 whole entry): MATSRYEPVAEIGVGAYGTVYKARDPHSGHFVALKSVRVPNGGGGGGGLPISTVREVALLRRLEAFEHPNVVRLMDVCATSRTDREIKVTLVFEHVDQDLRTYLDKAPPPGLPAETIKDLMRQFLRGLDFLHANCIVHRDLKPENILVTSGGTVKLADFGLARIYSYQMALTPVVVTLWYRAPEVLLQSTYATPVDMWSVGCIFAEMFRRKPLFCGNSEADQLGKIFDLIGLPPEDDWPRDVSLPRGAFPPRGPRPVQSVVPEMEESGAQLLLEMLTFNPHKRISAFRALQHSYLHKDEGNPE

MV4-11 = assay: In vivo antitumor activity against human MV4-11 cells xenografted in mouse assessed as tumor weight at 50 mg/kg, po relative to control; assay type: functional, organism-based
MDA-MB-231 [16] = assay: In vivo antitumor activity against human MDA-MB-231 cells xenografted in Balb/c mouse assessed as reduction in tumor mass at 40 to 70 mg/kg, po once daily measured for 16 days; assay type: functional, organism-based; settings: dose 40-70 mg/kg, time 16.0 day
MDA-MB-231 [17] = assay: Induction of morphological changes in human MDA-MB-231 cells at 10 uM measured within 2 hrs by fluorescence analysis; assay type: functional, cell-based; settings: time hrs <=2
[18] = Metabolic stability in human liver microsomes assessed as compound remaining at 1 uM measured after 1 hr; assay type: ADME, Microsome; settings: read-out: Stabilty
[19] = Toxicity in NSG orthotopic mouse xenografted with human MDA-MB-231 cells assessed as adverse effect at 40 to 70 mg/kg, po once daily measured for 2 weeks; assay type: organism-based; settings: in vivo, 336 h, dose 40-70 mg/kg
Focal adhesion kinase 1 [20] = biological target: T1, Focal adhesion kinase 1; assay: Inhibition of FAK in human HCT-116 cells assessed as inhibition of paxillin phosphorylation at 0.5 to 5 uM incubated for 24 hrs by Western blot analysis; assay type: cell-based; settings: dose 0.5-5 µM
HCT-116 [21] = assay: Growth inhibition of anchorage-Independent human HCT-116 cells assessed as decrease in number of colonies incubated for 72 hrs by MTT assay; assay type: functional, cell-based; settings: dose 1-10 µM
HCT-116 [22] = assay: Induction of apoptosis in human HCT-116 cells assessed as cleaved caspase-3 at 0.1 to 10 uM incubated for 24 hrs by Western blot analysis; assay type: functional, cell-based; settings: dose 0.1-10 µM
[23] = biological target: Tyrosine-protein kinase Fes/Fps (Homo sapiens, UniProt P07332); assay: Inhibition of Fes (unknown origin)

SMILES: CCN1CCN(c2ccc(Nc3ncc4scc(-c5cccc(NS(C)(=O)=O)c5)c4n3)cc2)CC1
- bioavailability [1]: 15.8%
- Activity [2]: Non-Toxic
- inhibition at 1 µM (HCT-116 [3]): 50%
- IC50 [4]: 3.4 nM
- growth inhibition (GI) (HCT-116 [5]): Active
- inhibition (Focal adhesion kinase 1 [6]): Active
- inhibition at 10 µM (CYP2D6): 100%
- inhibition (Focal adhesion kinase 1 [7]): Active
- inhibition [8]: 93.8%
- inhibition at 10 µM (CYP3A4): 71.9%
- inhibition at 10 µM (CYP2C9): 93.6%
- IC50 [9]: 3.2 nM
- GI50 [10]: 370 nM
- inhibition (Focal adhesion kinase 1 [11]): Active
- inhibition [12]: 92.9%
- inhibition (Focal adhesion kinase 1 [13]): Active
- GI50 (BaF3): 4 nM
- inhibition [14]: 97%
- inhibition [15]: 92.7%
- Activity (MV4-11): Active
- Activity (MDA-MB-231 [16]): Active
- Activity (MDA-MB-231 [17]): Active
- remaining at 1 h, 1 µM [18]: 80.2%
- Activity [19]: Non-Toxic
- inhibition (Focal adhesion kinase 1 [20]): Active
- growth inhibition (GI) (HCT-116 [21]): Active
- Activity (HCT-116 [22]): Active
- IC50 [23]: 4.9 nM
